In patent US6673745B2, “Herbicidal 3,5-difluoropyridines” (BASF Aktiengesellschaft, priority 1997, dated 2004):

How the values were obtained:
Assay type in all cases: in vivo
[1] = tested on: Ipomoea hederacea (IPOHE); experiment: pre-emergence herbicidal test; details: second assessment 21 days after treatment
Procedure: (§1) To evaluate their herbicidal activity, compounds according to the invention are tested using a representative range of plants: […] The pre-emergence tests involve spraying a liquid formulation of the compound onto the soil in which the seeds of the plant species mentioned above has recently been sown. The soil used in the tests is a prepared horticultural loam. […] In these tests untreated sown soil are used as controls.

Setaria viridis (SETVI) = experiment: pre-emergence herbicidal test; details: second assessment 21 days after treatment
Procedure: as §1

[2] = tested on: Abutilon theophrasti (ABUTH); experiment: pre-emergence herbicidal test; details: second assessment 21 days after treatment
Procedure: as §1

Glycine max (GLXMA) = experiment: pre-emergence herbicidal test
Procedure: as §1

Zea mays (ZEAMX) = experiment: pre-emergence herbicidal test
Procedure: as §1

[3] = tested on: Triticum aestivum (TRZAW); experiment: pre-emergence herbicidal test
Procedure: as §1

[4] = tested on: Alopecurus myosuroides (ALOMY); experiment: pre-emergence herbicidal test; details: second assessment 21 days after treatment
Procedure: as §1

[5] = tested on: Matricaria inodora (MATIN); experiment: pre-emergence herbicidal test; details: second assessment 21 days after treatment
Procedure: as §1

weeds = experiment: pre-emergence test, overall weed control; details: dose of 25 g/ha
Procedure: (§2) To evaluate their herbicidal activity, compounds according to the invention are tested using a representative range of plants:
(§3) The pre-emergence tests involve spraying a liquid formulation of the compound onto the soil in which the seeds of the plant species mentioned above has recently been sown.
(§4) The soil used in the tests is a prepared horticultural loam. The formulations used in the tests are prepared from solutions of the test compounds in acetone containing 0.4% by weight of an alkylphenol/ethylene oxide condensate available under the trade mark TRITON X-155. These acetone solutions are diluted with water and the resulting formulations applied at dosage levels corresponding to 12.5 g, 25 g, 100 g or 400 g of active material per hectare in a volume equivalent to 900 liters per hectare. In these tests untreated sown soil are used as controls.
(§5) From 2 to 4 weeks after treatment, the tests are terminated and each pot is examined and rated according to the rating system set forth below:
(§6) The compounds of the invention have shown to clearly improve selectivity in important crops (maize, soybeans, wheat, barley) when compared to the corresponding compounds of the state of the art having a central 4-methylpyrid-2,6-diyl moiety instead of the 3,5-difluoro-4-methylpyrid-2,6-diyl group according to the invention.

rice, maize and wheat = experiment: pre-emergence test, crop tolerance and selectivity; details: dose of 25 g/ha
Procedure: as §2, §3, §4, §5, §6

Oryza sativa (ORYSA) = experiment: pre-emergence herbicidal test
Procedure: as §2, §3, §4
(§7) From 2 to 4 weeks after treatment, the tests are terminated and each pot is examined and rated according to the rating system set forth below: […]

Hordeum vulgare (HORVW) = experiment: pre-emergence herbicidal test
Procedure: as §2, §3, §4, §7

Veronica persica (VERPE) = experiment: pre-emergence herbicidal test; details: second assessment 21 days after treatment
Procedure: as §2, §3, §4, §7

Stellaria media (STEME) = experiment: pre-emergence herbicidal test; details: second assessment 21 days after treatment
Procedure: as §2, §3, §4, §7

Galium aparine (GALAP) = experiment: pre-emergence herbicidal test; details: second assessment 21 days after treatment
Procedure: as §2, §3, §4, §7

[6] = tested on: Ambrosia artemisiifolia (AMBEL); experiment: pre-emergence herbicidal test; details: second assessment 21 days after treatment
Procedure: as §1

[7] = 0.0125 kg/ha, first assessment 10 days after treatment
[8] = 0.0125 kg/ha, second assessment 21 days after treatment
[9] = 0.025 kg/ha, first assessment 10 days after treatment
[10] = 0.025 kg/ha, second assessment 21 days after treatment
[11] = 0.100 kg/ha, first assessment 10 days after treatment
[12] = 0.100 kg/ha, second assessment 21 days after treatment
[13] = 0.400 kg/ha, first assessment 10 days after treatment
[14] = 0.400 kg/ha, second assessment 21 days after treatment

Cc1c(F)c(Oc2cc(C(F)(F)F)nn2C)nc(-c2ccc(C(F)(F)F)cc2)c1F [Example 1, 3,5-Difluoro4-methyl-2-(1-methyl-3-trifluoromethylpyrazol-5-yloxy)-6-(4-trifluoromethylphenyl)pyridine]
3 (3 - Moderate effect): IPOHE rating ([1]; 0.025 kg/ha) | GLXMA rating (Glycine max (GLXMA); [11]) | ZEAMX rating (Zea mays (ZEAMX); [11]) | ZEAMX rating (Zea mays (ZEAMX); [12]) | TRZAW rating [3, 7] | TRZAW rating [3, 8] | TRZAW rating [3, 9] | TRZAW rating [3, 10] | ORYSA rating (Oryza sativa (ORYSA); [11]) | GALAP rating (Galium aparine (GALAP); 0.0125 kg/ha)
2 (2 - Slight effect): GLXMA rating (Glycine max (GLXMA); [7]) | GLXMA rating (Glycine max (GLXMA); [9]) | ZEAMX rating (Zea mays (ZEAMX); [9]) | ZEAMX rating (Zea mays (ZEAMX); [10]) | ORYSA rating (Oryza sativa (ORYSA); [8]) | ORYSA rating (Oryza sativa (ORYSA); [10])
9 (9 - Complete kill): IPOHE rating ([1]; 0.100 kg/ha) | IPOHE rating ([1]; 0.400 kg/ha) | SETVI rating (Setaria viridis (SETVI); 0.100 kg/ha) | SETVI rating (Setaria viridis (SETVI); 0.400 kg/ha) | ABUTH rating ([2]; 0.025 kg/ha) | ABUTH rating ([2]; 0.100 kg/ha) | ABUTH rating ([2]; 0.400 kg/ha) | ALOMY rating ([4]; 0.100 kg/ha) | ALOMY rating ([4]; 0.400 kg/ha) | MATIN rating ([5]; 0.100 kg/ha) | MATIN rating ([5]; 0.400 kg/ha) | VERPE rating (Veronica persica (VERPE); 0.025 kg/ha) | VERPE rating (Veronica persica (VERPE); 0.100 kg/ha) | VERPE rating (Veronica persica (VERPE); 0.400 kg/ha) | STEME rating (Stellaria media (STEME); 0.0125 kg/ha) | STEME rating (Stellaria media (STEME); 0.025 kg/ha) | STEME rating (Stellaria media (STEME); 0.100 kg/ha) | STEME rating (Stellaria media (STEME); 0.400 kg/ha)
6 (6 - Herbicidal effect): ABUTH rating ([2]; 0.0125 kg/ha) | TRZAW rating [3, 13] | TRZAW rating [3, 14] | HORVW rating (Hordeum vulgare (HORVW); [13])
8 (8 - Approaching complete kill): ALOMY rating ([4]; 0.025 kg/ha) | MATIN rating ([5]; 0.0125 kg/ha) | MATIN rating ([5]; 0.025 kg/ha) | VERPE rating (Veronica persica (VERPE); 0.0125 kg/ha) | GALAP rating (Galium aparine (GALAP); 0.400 kg/ha)
1 (1 - Trace effect): ZEAMX rating (Zea mays (ZEAMX); [7]) | ZEAMX rating (Zea mays (ZEAMX); [8]) | ORYSA rating (Oryza sativa (ORYSA); [7]) | ORYSA rating (Oryza sativa (ORYSA); [9])
7 (7 - Good herbicidal effect): SETVI rating (Setaria viridis (SETVI); 0.0125 kg/ha) | SETVI rating (Setaria viridis (SETVI); 0.025 kg/ha) | ALOMY rating ([4]; 0.0125 kg/ha) | HORVW rating (Hordeum vulgare (HORVW); [14]) | GALAP rating (Galium aparine (GALAP); 0.100 kg/ha)
well tolerated: crop tolerance (rice, maize and wheat)
4 (4 - Injury): GLXMA rating (Glycine max (GLXMA); [8]) | GLXMA rating (Glycine max (GLXMA); [10]) | GLXMA rating (Glycine max (GLXMA); [13]) | ORYSA rating (Oryza sativa (ORYSA); [12]) | ORYSA rating (Oryza sativa (ORYSA); [13]) | HORVW rating (Hordeum vulgare (HORVW); [7]) | HORVW rating (Hordeum vulgare (HORVW); [8]) | HORVW rating (Hordeum vulgare (HORVW); [10])
5 (5 - Definite injury): GLXMA rating (Glycine max (GLXMA); [12]) | GLXMA rating (Glycine max (GLXMA); [14]) | TRZAW rating [3, 11] | TRZAW rating [3, 12] | ORYSA rating (Oryza sativa (ORYSA); [14]) | HORVW rating (Hordeum vulgare (HORVW); [9]) | HORVW rating (Hordeum vulgare (HORVW); [11]) | HORVW rating (Hordeum vulgare (HORVW); [12]) | GALAP rating (Galium aparine (GALAP); 0.025 kg/ha)
good overall levels of weed control: overall levels of weed control (weeds)

Cc1c(F)c(Oc2cccc(C(F)(F)F)c2)nc(-c2ccc(C(F)(F)F)cc2)c1F [Example 2]
8 (8 - Approaching complete kill): SETVI rating (Setaria viridis (SETVI); 0.025 kg/ha) | ABUTH rating ([2]; 0.400 kg/ha) | MATIN rating ([5]; 0.025 kg/ha) | MATIN rating ([5]; 0.100 kg/ha)
2 (2 - Slight effect): IPOHE rating ([1]; 0.025 kg/ha) | GLXMA rating (Glycine max (GLXMA); [8]) | GLXMA rating (Glycine max (GLXMA); [10]) | ZEAMX rating (Zea mays (ZEAMX); [11]) | ZEAMX rating (Zea mays (ZEAMX); [12]) | ALOMY rating ([4]; 0.0125 kg/ha)
4 (4 - Injury): AMBEL rating ([6]; 0.0125 kg/ha) | GLXMA rating (Glycine max (GLXMA); [12]) | TRZAW rating [3, 13]
6 (6 - Herbicidal effect): GLXMA rating (Glycine max (GLXMA); [13])
5 (5 - Definite injury): AMBEL rating ([6]; 0.025 kg/ha) | AMBEL rating ([6]; 0.100 kg/ha) | SETVI rating (Setaria viridis (SETVI); 0.0125 kg/ha) | TRZAW rating [3, 14]
1 (1 - Trace effect): IPOHE rating ([1]; 0.0125 kg/ha) | ABUTH rating ([2]; 0.025 kg/ha) | GLXMA rating (Glycine max (GLXMA); [9]) | ZEAMX rating (Zea mays (ZEAMX); [9]) | ZEAMX rating (Zea mays (ZEAMX); [10]) | TRZAW rating [3, 7] | TRZAW rating [3, 9] | TRZAW rating [3, 11] | TRZAW rating [3, 12]
9 (9 - Complete kill): AMBEL rating ([6]; 0.400 kg/ha) | SETVI rating (Setaria viridis (SETVI); 0.100 kg/ha) | SETVI rating (Setaria viridis (SETVI); 0.400 kg/ha) | ALOMY rating ([4]; 0.400 kg/ha) | MATIN rating ([5]; 0.400 kg/ha)
7 (7 - Good herbicidal effect): IPOHE rating ([1]; 0.400 kg/ha) | GLXMA rating (Glycine max (GLXMA); [14]) | MATIN rating ([5]; 0.0125 kg/ha)
3 (3 - Moderate effect): IPOHE rating ([1]; 0.100 kg/ha) | ABUTH rating ([2]; 0.100 kg/ha) | GLXMA rating (Glycine max (GLXMA); [11]) | ZEAMX rating (Zea mays (ZEAMX); [13]) | ZEAMX rating (Zea mays (ZEAMX); [14]) | ALOMY rating ([4]; 0.025 kg/ha)
0 (0 - No effect): ABUTH rating ([2]; 0.0125 kg/ha) | GLXMA rating (Glycine max (GLXMA); [7]) | ZEAMX rating (Zea mays (ZEAMX); [7]) | ZEAMX rating (Zea mays (ZEAMX); [8]) | TRZAW rating [3, 8] | TRZAW rating [3, 10]
